Test results: patent US8841513B2, “Procedure for producing transgenic plants providing high starch content and yield and high amylose/amylopectin balance” (priority 2008, dated 2014)
Like-named read-outs stand apart in the source and are kept apart here.

Columns and labels:
GP of E. coli [1] = biological target: T1, GP of E. coli (Escherichia coli, UniProt P0AC86, E280D/L281V); experiment: Substrate specificity of GP of E. coli (products by HPLC with amperometric detection); type: biochemical
T1 construct: His tag (pET-15b) (N); made in house; host or cells: E. coli BL21 (DE3) C43 transformed with pET15b-glgP (CECT 7071)
T1 sequence (P0AC86 other isoform, or with tags, fused parts or gaps E280D/L281V): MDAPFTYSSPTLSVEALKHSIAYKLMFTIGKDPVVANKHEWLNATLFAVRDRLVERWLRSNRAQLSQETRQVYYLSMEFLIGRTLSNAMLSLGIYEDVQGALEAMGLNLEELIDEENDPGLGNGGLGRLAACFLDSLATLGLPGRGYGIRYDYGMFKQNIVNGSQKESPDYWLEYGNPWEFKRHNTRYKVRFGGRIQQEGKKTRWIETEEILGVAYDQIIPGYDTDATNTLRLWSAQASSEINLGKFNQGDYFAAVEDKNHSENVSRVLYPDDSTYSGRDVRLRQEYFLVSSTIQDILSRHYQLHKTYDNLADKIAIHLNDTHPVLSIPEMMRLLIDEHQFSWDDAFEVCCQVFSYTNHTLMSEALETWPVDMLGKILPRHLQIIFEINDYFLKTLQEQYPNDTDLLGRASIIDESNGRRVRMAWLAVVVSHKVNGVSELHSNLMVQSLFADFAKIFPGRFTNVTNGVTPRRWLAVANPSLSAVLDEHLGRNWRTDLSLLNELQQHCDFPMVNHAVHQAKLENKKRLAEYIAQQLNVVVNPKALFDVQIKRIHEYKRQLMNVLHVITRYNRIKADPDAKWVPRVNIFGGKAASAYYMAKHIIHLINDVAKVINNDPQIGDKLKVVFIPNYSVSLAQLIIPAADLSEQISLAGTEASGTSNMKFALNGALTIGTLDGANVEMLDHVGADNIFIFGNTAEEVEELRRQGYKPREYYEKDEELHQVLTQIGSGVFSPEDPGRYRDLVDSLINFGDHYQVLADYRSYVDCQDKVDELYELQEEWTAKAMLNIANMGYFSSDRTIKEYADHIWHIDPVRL
Procedure: The enzymatic reactions were carried out at 37° C. GP activities were measured in the sense of the analysed polyglucan degradation. […] The reaction was stopped after boiling for 2 minutes and centrifuging at 30,000 g for 20 minutes. The existing released G1P in the supernatant was determined by any of the following methods: • By spectrophotometry. 300 μL of mixture containing Hepes 50 mM pH 7, EDTA 1 mM, MgCl2 2 mM, KCl 15 mM, NAD^+ 0.6 mM, a unit of phosphoglucomutase and another of glucose-6-phosphate dehydrogenase of Leuconostoc mesenteroides, and 30 μL of supernatant resulting from step one were incubated for 20 minutes. The production of NADH was monitored at 340 nm using a Multiskan EX spectrophotometer (Labsystems). […] 40 μL of the supernatant from step 1 were subjected to high affinity liquid chromatography using a DX-500 Dionex system fitted to a Carbo-Pac PA10 column and amperometric detection.

GP of E. coli [2] = biological target: T1, GP of E. coli; type: biochemical
Procedure: The enzymatic reactions were carried out at 37° C. GP activities were measured in the sense of the analysed polyglucan degradation. In a first step, 50 μL of reaction mixture consisting of 50 mM HEPES (pH 7.5), 30 mM phosphate buffer (pH 7.5), polyglucan (equivalent to 10 mM glucose) and protein extract, were incubated for 15 minutes. The reaction was stopped after boiling for 2 minutes and centrifuging at 30,000 g for 20 minutes. The existing released G1P in the supernatant was determined by any of the following methods: • By spectrophotometry. 300 μL of mixture containing Hepes 50 mM pH 7, EDTA 1 mM, MgCl2 2 mM, KCl 15 mM, NAD^+ 0.6 mM, a unit of phosphoglucomutase and another of glucose-6-phosphate dehydrogenase of Leuconostoc mesenteroides, and 30 μL of supernatant resulting from step one were incubated for 20 minutes. The production of NADH was monitored at 340 nm using a Multiskan EX spectrophotometer (Labsystems). […] 40 μL of the supernatant from step 1 were subjected to high affinity liquid chromatography using a DX-500 Dionex system fitted to a Carbo-Pac PA10 column and amperometric detection.
The unit (U) is defined as the amount of enzyme that catalyzes the production of 1 μmol of product per minute.

[3] = cell without unit, glucan 5 mM glucose, 3 U recombinant GP, 3 hours, 37° C.
[4] = glucan 5 mM glucose, 30 mM Pi, 3 U recombinant GP, 3 hours, 37° C.
[5] = effector 2 mM, GP activity, no effector = 100
[6] = effector 3 mM, GP activity, no effector = 100

Molecule	Recognition as substrate by the GP of E. coli (GP of E. coli [1])	Products: G1P (GP of E. coli [1]; [4])	Products: Maltose (GP of E. coli [1]; [4])	Products: Maltotriose (GP of E. coli [1]; [4])	Inhibition of the GP of E. coli (GP of E. coli [2])	Activity (U/mg protein) (GP of E. coli [2]; effector 2 mM)	% control (GP of E. coli [2]; [5]) [%]	also measured
Maltopentaose	recognizes	1.6 mM	b.d.l.	b.d.l.				Products: Maltohexose (GP of E. coli [1]; [3]): 0.2; Products: Maltoheptose (GP of E. coli [1]; [4]): b.d.l.; Products: Maltopentaose (GP of E. coli [1]; [4]): 2.2 mM; Products: Maltotetraose (GP of E. coli [1]; [4]): 1.0 mM
Nc1ncnc2c1ncn2[C@@H]1O[C@H](COP(=O)(O)OP(=O)(O)O[C@H]2O[C@H](CO)[C@@H](O)[C@H](O)[C@H]2O)[C@@H](O)[C@H]1O [ADPG, ADPglucose]					not to be inhibited	8.3	104	
O=C[C@H](O)[C@@H](O)[C@H](O)[C@H](O)COP(=O)(O)O [Glucose-6-phosphate]					not to be inhibited	7.6	95	
OC[C@H]1O[C@H](O[C@H]2[C@H](O)[C@@H](O)[C@@H](O[C@H]3[C@H](O)[C@@H](O)[C@@H](O[C@H]4[C@H](O)[C@@H](O)[C@@H](O[C@H]5[C@H](O)[C@@H](O)[C@@H](O[C@H]6[C@H](O)[C@@H](O)C(O)O[C@@H]6CO)O[C@@H]5CO)O[C@@H]4CO)O[C@@H]3CO)O[C@@H]2CO)[C@H](O)[C@@H](O)[C@@H]1O (some centres unmarked) [Maltohexose]	recognizes	1.7 mM	b.d.l.	b.d.l.				Products: Maltoheptose (GP of E. coli [1]; [3]): 0.1; Products: Maltohexose (GP of E. coli [1]; [4]): 2.1 mM; Products: Maltopentaose (GP of E. coli [1]; [4]): 0.5 mM; Products: Maltotetraose (GP of E. coli [1]; [4]): 0.6 mM
Nc1ncnc2c1ncn2[C@@H]1O[C@H](COP(=O)(O)O)[C@@H](O)[C@H]1O [AMP]					not to be inhibited			Activity (U/mg protein) (GP of E. coli [2]; effector 3 mM): 7.6 U/mg protein; % control (GP of E. coli [2]; [6]): 95%
Nc1ncnc2c1ncn2[C@@H]1O[C@@H]2COP(=O)(O)O[C@H]2[C@H]1O [Cyclic AMP]								% control (GP of E. coli [2]): 91%; Activity (U/mg protein) (GP of E. coli [2]): 7.3 U/mg protein
OC[C@H]1O[C@H](O[C@H]2[C@H](O)[C@@H](O)[C@@H](O[C@H]3[C@H](O)[C@@H](O)[C@@H](O[C@H]4[C@H](O)[C@@H](O)[C@@H](O[C@H]5[C@H](O)[C@@H](O)[C@@H](O[C@H]6[C@H](O)[C@@H](O)[C@@H](O[C@H]7[C@H](O)[C@@H](O)C(O)O[C@@H]7CO)O[C@@H]6CO)O[C@@H]5CO)O[C@@H]4CO)O[C@@H]3CO)O[C@@H]2CO)[C@H](O)[C@@H](O)[C@@H]1O (some centres unmarked) [Maltoheptose]	recognizes	2.1 mM	b.d.l.	b.d.l.				Products: Maltoheptose (GP of E. coli [1]; [4]): 1.3 mM; Products: Maltohexose (GP of E. coli [1]; [4]): 1 mM; Products: Maltopentaose (GP of E. coli [1]; [4]): 0.4 mM; Products: Maltotetraose (GP of E. coli [1]; [4]): 0.2 mM
OC[C@H]1O[C@H](O[C@H]2[C@H](O)[C@@H](O)[C@@H](O[C@H]3[C@H](O)[C@@H](O)[C@@H](O[C@H]4[C@H](O)[C@@H](O)C(O)O[C@@H]4CO)O[C@@H]3CO)O[C@@H]2CO)[C@H](O)[C@@H](O)[C@@H]1O (some centres unmarked) [Maltotetraose]	does not act on	b.d.l.	b.d.l.	b.d.l.				Products: Maltotetraose (GP of E. coli [1]; [4]): 5 mM
Nc1ncnc2c1ncn2[C@@H]1O[C@H](COP(=O)(O)OP(=O)(O)OP(=O)(O)O)[C@@H](O)[C@H]1O [ATP]					not to be inhibited	4.8	60	
Glycogen	recognizes	0.5 mM	b.d.l.	b.d.l.				Products: Glycogen (GP of E. coli [1]; [4]): 4.5 mM; Products: Maltoheptose (GP of E. coli [1]; [4]): b.d.l.; Products: Maltohexose (GP of E. coli [1]; [4]): b.d.l.; Products: Maltopentaose (GP of E. coli [1]; [4]): b.d.l.; Products: Maltotetraose (GP of E. coli [1]; [4]): b.d.l.
starch	recognizes							
OC[C@H]1O[C@H](O[C@H]2[C@H](O)[C@@H](O)C(O)O[C@@H]2CO)[C@H](O)[C@@H](O)[C@@H]1O (mixture of isomers) [Maltose]	does not act on	b.d.l.	5 mM					
O=P(O)(O)OP(=O)(O)O [Pyrophosphate]								Activity (U/mg protein) (GP of E. coli [2]; effector 3 mM): 7.8 U/mg protein; % control (GP of E. coli [2]; [6]): 98%
O=C(O)[C@H](O)COP(=O)(O)O [3-phosphoglycerate]					not to be inhibited	8.9	111	
Nc1ncnc2c1ncn2[C@@H]1O[C@H](COP(=O)(O)OP(=O)(O)O)[C@@H](O)[C@H]1O [ADP]					not to be inhibited	7.0	88	
Maltotriose	does not act on	b.d.l.	b.d.l.	5 mM				
O=C(CO)[C@@H](O)[C@H](O)[C@H](O)COP(=O)(O)O [Fructose-6-phosphate]					not to be inhibited	8.4	105	
O=C(COP(=O)(O)O)[C@@H](O)[C@H](O)[C@H](O)COP(=O)(O)O [Fructose-1,6-bisphosphate]					not to be inhibited	9.0	113	
